From patent US10150771B2, “Triazolopyrazinones as PDE1 inhibitors” (H. Lundbeck A/S, priority 2014, dated 2018)

Legend:
Format in all cases: biochemical
[1] = biological target: PDE1A (Homo sapiens, UniProt P54750); test: PDE1 inhibition assay (SPA), PDE1A; conditions: for IC50: concentration required to reach 50% inhibition of the enzyme, 15 nM tritium labelled cAMP, read-out: PDE1A inhibition (nM or %): IC50; for inhibition at 10 µM: 1 h, % inhibition of the enzyme at a concentration of 10 micro molar of the compound, read-out: PDE1A inhibition (nM or %): % inhib
PDE1A, sequence (P54750 whole entry): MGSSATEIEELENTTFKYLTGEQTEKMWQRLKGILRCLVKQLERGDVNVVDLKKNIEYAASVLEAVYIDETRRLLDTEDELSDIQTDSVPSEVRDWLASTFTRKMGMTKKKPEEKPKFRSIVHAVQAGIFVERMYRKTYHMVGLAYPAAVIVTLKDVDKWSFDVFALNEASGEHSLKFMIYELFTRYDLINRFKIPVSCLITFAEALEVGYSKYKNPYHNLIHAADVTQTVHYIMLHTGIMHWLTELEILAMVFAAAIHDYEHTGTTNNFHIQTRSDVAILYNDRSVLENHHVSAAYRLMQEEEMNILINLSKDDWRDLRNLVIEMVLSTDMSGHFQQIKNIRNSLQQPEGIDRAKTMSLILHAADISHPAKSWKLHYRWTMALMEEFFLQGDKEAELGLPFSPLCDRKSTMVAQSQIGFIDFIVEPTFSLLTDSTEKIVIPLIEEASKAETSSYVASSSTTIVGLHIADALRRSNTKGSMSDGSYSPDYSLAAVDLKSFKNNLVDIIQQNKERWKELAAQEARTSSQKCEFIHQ
Method: (§1) PDE1 Inhibition Assay PDE1A, PDE1B and PDE1C assays were performed as follows: the assays were performed in 60 μL samples containing a fixed amount of the PDE1 enzym1 (sufficient to convert 20-25% of the cyclic nucleotide substrate), a buffer (50 mM HEPES pH 7.6; 10 mM MgCl2; 0.02% Tween20), 0.1 mg/ml BSA, 15 nM tritium labelled cAMP and varying amounts of inhibitors. Reactions were initiated by addition of the cyclic nucleotide substrate, and reactions were allowed to proceed for 1 h at room temperature before being terminated through mixing with 20 μL (0.2 mg) yttrium silicate SPA beads (PerkinElmer). The beads were allowed to settle for 1 h in the dark before the plates were counted in a Wallac 1450 Microbeta counter. The measured signals were converted to activity relative to an uninhibited control (100%) and IC50 values were calculated using XIFit (model 205, IDBS).

[2] = biological target: PDE1C (Homo sapiens, UniProt Q14123); test: PDE1 inhibition assay (SPA), PDE1C; conditions: concentration required to reach 50% inhibition of the enzyme; 15 nM tritium labelled cAMP; read-out: PDE1C inhibition (nM or %): IC50
PDE1C, sequence (Q14123 whole entry): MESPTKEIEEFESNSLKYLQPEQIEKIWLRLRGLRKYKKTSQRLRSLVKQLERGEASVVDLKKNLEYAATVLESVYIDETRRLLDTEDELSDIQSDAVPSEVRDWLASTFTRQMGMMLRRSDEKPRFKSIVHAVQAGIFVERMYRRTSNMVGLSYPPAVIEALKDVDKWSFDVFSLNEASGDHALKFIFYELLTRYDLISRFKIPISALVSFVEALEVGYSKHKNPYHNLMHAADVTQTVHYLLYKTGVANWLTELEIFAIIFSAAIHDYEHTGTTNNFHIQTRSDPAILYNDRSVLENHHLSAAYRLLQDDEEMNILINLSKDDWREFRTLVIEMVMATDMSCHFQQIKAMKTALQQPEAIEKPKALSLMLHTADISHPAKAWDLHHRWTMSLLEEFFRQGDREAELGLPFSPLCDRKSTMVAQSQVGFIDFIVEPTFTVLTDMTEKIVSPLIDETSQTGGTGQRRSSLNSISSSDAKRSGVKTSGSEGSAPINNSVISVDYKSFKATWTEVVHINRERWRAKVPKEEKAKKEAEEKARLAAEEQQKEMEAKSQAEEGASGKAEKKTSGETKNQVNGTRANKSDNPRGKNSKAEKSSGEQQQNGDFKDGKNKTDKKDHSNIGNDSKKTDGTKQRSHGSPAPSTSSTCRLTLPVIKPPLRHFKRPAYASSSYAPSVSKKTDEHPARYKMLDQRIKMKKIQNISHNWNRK
Method: as §1

[3] = biological target: PDE1B (Homo sapiens, UniProt Q01064); test: PDE1 inhibition assay (SPA), PDE1B; conditions: for IC50: concentration required to reach 50% inhibition of the enzyme, 15 nM tritium labelled cAMP, read-out: PDE1B inhibition (nM or %): IC50
PDE1B, sequence (Q01064 whole entry): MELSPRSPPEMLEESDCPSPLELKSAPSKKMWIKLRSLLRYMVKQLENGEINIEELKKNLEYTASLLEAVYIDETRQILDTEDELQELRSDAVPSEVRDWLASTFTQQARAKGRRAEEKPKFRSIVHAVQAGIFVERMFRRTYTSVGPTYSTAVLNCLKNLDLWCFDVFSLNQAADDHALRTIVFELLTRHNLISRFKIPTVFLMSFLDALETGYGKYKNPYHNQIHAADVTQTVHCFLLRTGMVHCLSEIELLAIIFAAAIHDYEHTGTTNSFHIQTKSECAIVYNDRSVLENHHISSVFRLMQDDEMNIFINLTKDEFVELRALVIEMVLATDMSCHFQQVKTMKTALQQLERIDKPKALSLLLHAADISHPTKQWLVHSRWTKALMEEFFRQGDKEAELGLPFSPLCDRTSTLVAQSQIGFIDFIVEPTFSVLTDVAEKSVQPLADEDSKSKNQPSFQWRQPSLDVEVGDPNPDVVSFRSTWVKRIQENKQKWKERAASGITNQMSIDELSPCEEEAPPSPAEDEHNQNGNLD
Method: as §1

SMILES	IC50 [1]	IC50 [2]	IC50 [3]	inhibition at 10 µM [1]	inhibition at 10 µM ([3]; 1 h, % inhibition of the enzyme at a concentration of 10 micro molar of the compound, read-out: PDE1B inhibition (nM or %): % inhib)
O=c1c2nnc(C3CCOCC3)n2cc(Cc2ccccc2)n1CC1CCCCCC1 [6-benzyl-7-(cycloheptylmethyl)-3-(tetrahydro-2H-pyran-4-yl)-[1,2,4]triazolo[4,3-a]pyrazin-8(7H)-one]	1 nM	2 nM	4 nM	–	–
O=c1c2nnc(C3CCOCC3)n2cc(Cc2ccccc2)n1CC1CCCCC1 [6-benzyl-7-(cyclohexylmethyl)-3-(tetrahydro-2H-pyran-4-yl)-[1,2,4]triazolo[4,3-a]pyrazin-8(7H)-one]	11 nM	4 nM	11 nM	–	–
O=c1c2nnc(C3CCOCC3)n2cc(Cc2ccccc2)n1CC1CCCC1 [6-benzyl-7-(cyclopentylmethyl)-3-(tetrahydro-2H-pyran-4-yl)-[1,2,4]triazolo[4,3-a]pyrazin-8(7H)-one]	65 nM	5 nM	46 nM	–	–
O=c1c2nnc(C3CCOCC3)n2cc(Br)n1CC1CCCCCC1 [6-bromo-7-(cycloheptylmethyl)-3-(tetrahydro-2H-pyran-4-yl)-[1,2,4]triazolo[4,3-a]pyrazin-8(7H)-one]	13 nM	3 nM	4 nM	–	–
O=c1c2nnc(C3CCOCC3)n2cc(Br)n1CC1CCCCC1 [6-bromo-7-(cyclohexylmethyl)-3-(tetrahydro-2H-pyran-4-yl)-[1,2,4]triazolo[4,3-a]pyrazin-8(7H)-one]	12 nM	3 nM	17 nM	–	–
O=c1c2nnc(C3CCOCC3)n2cc(Br)n1CC1CCCC1 [6-bromo-7-(cyclopentylmethyl)-3-(tetrahydro-2H-pyran-4-yl)-[1,2,4]triazolo[4,3-a]pyrazin-8(7H)-one]	164 nM	6 nM	140 nM	–	–
CCCc1nnc2c(=O)n(Cc3ccccc3Cl)ccn12 [7-(2-Chlorobenzyl)-3-propyl-[1,2,4]triazolo[4,3-a]pyrazin-8(7H)-one]	2000 nM	430 nM	2500 nM	–	–
CCCc1nnc2c(=O)n(Cc3ccccc3F)ccn12 [7-(2-Fluorobenzyl)-3-propyl-[1,2,4]triazolo[4,3-a]pyrazin-8(7H)-one]	860 nM	130 nM	1000 nM	–	–
CCCc1nnc2c(=O)n(Cc3ccccc3C)ccn12 [7-(2-Methylbenzyl)-3-propyl-[1,2,4]triazolo[4,3-a]pyrazin-8(7H)-one]	–	2400 nM	–	53%	42%
O=c1c2nnc(CC(F)(F)F)n2ccn1Cc1cccc(F)c1 [7-(3-Fluorobenzyl)-3-(2,2,2-trifluoroethyl)-[1,2,4]triazolo[4,3-a]pyrazin-8(7H)-one]	2000 nM	380 nM	1400 nM	–	–
O=c1c2nnc([C@H]3CC[C@H](O)CC3)n2ccn1Cc1cccc(F)c1 [7-(3-Fluorobenzyl)-3-((1r,4r)-4-hydroxycyclohexyl)-[1,2,4]triazolo[4,3-a]pyrazin-8(7H)-one]	1000 nM	200 nM	630 nM	–	–
O=c1c2nnc([C@H]3CC[C@@H](O)CC3)n2ccn1Cc1cccc(F)c1 [7-(3-Fluorobenzyl)-3-((1s,4s)-4-hydroxycyclohexyl)-[1,2,4]triazolo[4,3-a]pyrazin-8(7H)-one]	1800 nM	350 nM	1000 nM	–	–
CCCCC(CC)c1nnc2c(=O)n(Cc3cccc(F)c3)ccn12 (stereo not drawn) [7-(3-Fluorobenzyl)-3-(heptan-3-yl)-[1,2,4]triazolo[4,3-a]pyrazin-8(7H)-one]	3200 nM	480 nM	1600 nM	–	–
O=c1c2nnc(C3COC3)n2ccn1Cc1cccc(F)c1 [7-(3-Fluorobenzyl)-3-(oxetan-3-yl)-[1,2,4]triazolo[4,3-a]pyrazin-8(7H)-one]	–	1700 nM	7200 nM	67%	–
O=c1c2nnc(C3CCOCC3)n2ccn1Cc1cccc(F)c1 [7-(3-Fluorobenzyl)-3-(tetrahydro-2H-pyran-4-yl)-[1,2,4]triazolo[4,3-a]pyrazin-8(7H)-one]	730 nM	140 nM	680 nM	–	–
CCCc1nnc2c(=O)n(Cc3cccc(C)c3)ccn12 [7-(3-Methylbenzyl)-3-propyl-[1,2,4]triazolo[4,3-a]pyrazin-8(7H)-one]	1500 nM	170 nM	1600 nM	–	–
CCCc1nnc2c(=O)n(Cc3cccc(F)c3)cc(C)n12 [7-(3-fluorobenzyl)-5-methyl-3-propyl-[1,2,4]triazolo[4,3-a]pyrazin-8(7H)-one]	1360 nM	260 nM	1000 nM	–	–
Cc1ccccc1Cc1cn2c(C3CCOCC3)nnc2c(=O)n1Cc1cccc(F)c1 [7-(3-fluorobenzyl)-6-(2-methylbenzyl)-3-(tetrahydro-2H-pyran-4-yl)-[1,2,4]triazolo[4,3-a]pyrazin-8(7H)-one]	91 nM	17 nM	82 nM	–	–
O=c1c2nnc(C3CCOCC3)n2cc(Cc2ccc(F)cc2)n1Cc1cccc(F)c1 [7-(3-fluorobenzyl)-6-(4-fluorobenzyl)-3-(tetrahydro-2H-pyran-4-yl)-[1,2,4]triazolo[4,3-a]pyrazin-8(7H)-one]	46 nM	10 nM	43 nM	–	–
Cc1ccc(Cc2cn3c(C4CCOCC4)nnc3c(=O)n2Cc2cccc(F)c2)cc1 [7-(3-fluorobenzyl)-6-(4-methylbenzyl)-3-(tetrahydro-2H-pyran-4-yl)-[1,2,4]triazolo[4,3-a]pyrazin-8(7H)-one]	7 nM	1 nM	6 nM	–	–
O=c1c2nnc(C3CCOC3)n2ccn1Cc1ccc(Cl)cc1 (stereo not drawn) [7-(4-Chlorobenzyl)-3-(tetrahydrofuran-3-yl)-[1,2,4]triazolo[4,3-a]pyrazin-8(7H)-one]	500 nM	750 nM	840 nM	–	–

More lines, now with the values ahead:

IC50 [1]	IC50 [2]	IC50 [3]	inhibition at 10 µM [1]	inhibition at 10 µM ([3]; 1 h, % inhibition of the enzyme at a concentration of 10 micro molar of the compound, read-out: PDE1B inhibition (nM or %): % inhib)	SMILES
15 nM	6 nM	12 nM	–	–	O=c1c2nnc(C3CCOCC3)n2cc(Cc2ccccc2)n1Cc1ccc(F)cc1 [6-benzyl-7-(4-fluorobenzyl)-3-(tetrahydro-2H-pyran-4-yl)-[1,2,4]triazolo[4,3-a]pyrazin-8(7H)-one]
2000 nM	2800 nM	1600 nM	–	–	Cn1c(Cc2ccccc2)cn2c(C3CCOCC3)nnc2c1=O [6-benzyl-7-methyl-3-(tetrahydro-2H-pyran-4-yl)-[1,2,4]triazolo[4,3-a]pyrazin-8(7H)-one]
114 nM	24 nM	150 nM	–	–	O=c1c2nnc(C3CCOCC3)n2cc(Br)n1Cc1cccc(F)c1 [6-bromo-7-(3-fluorobenzyl)-3-(tetrahydro-2H-pyran-4-yl)-[1,2,4]triazolo[4,3-a]pyrazin-8(7H)-one]
63 nM	20 nM	99 nM	–	–	CCCc1nnc2c(=O)n(Cc3cccc(F)c3)c(Br)cn12 [6-bromo-7-(3-fluorobenzyl)-3-propyl-[1,2,4]triazolo[4,3-a]pyrazin-8(7H)-one]
117 nM	50 nM	180 nM	–	–	CCCc1nnc2c(=O)n(Cc3cccc(F)c3)c(CC)cn12 [6-ethyl-7-(3-fluorobenzyl)-3-propyl-[1,2,4]triazolo[4,3-a]pyrazin-8(7H)-one]
1400 nM	160 nM	1300 nM	–	–	CCCc1nnc2c(=O)n(Cc3cccc(Cl)c3)ccn12 [7-(3-Chlorobenzyl)-3-propyl-[1,2,4]triazolo[4,3-a]pyrazin-8(7H)-one]
2900 nM	620 nM	3000 nM	–	–	O=c1c2nnc(CCF)n2ccn1Cc1cccc(F)c1 [7-(3-Fluorobenzyl)-3-(2-fluoroethyl)-[1,2,4]triazolo[4,3-a]pyrazin-8(7H)-one]
1200 nM	420 nM	1900 nM	–	–	O=c1c2nnc(CC3CCOC3)n2ccn1Cc1cccc(F)c1 (stereo not drawn) [7-(3-Fluorobenzyl)-3-((tetrahydrofuran-3-yl)methyl)-[1,2,4]triazolo[4,3-a]pyrazin-8(7H)-one]
1100 nM	190 nM	1200 nM	–	–	CCCc1nnc2c(=O)n(Cc3cccc(F)c3)ccn12 [7-(3-Fluorobenzyl)-3-propyl-[1,2,4]triazolo[4,3-a]pyrazin-8(7H)-one]
6 nM	2 nM	9 nM	–	–	Cc1cccc(Cc2cn3c(C4CCOCC4)nnc3c(=O)n2Cc2cccc(F)c2)c1 [7-(3-fluorobenzyl)-6-(3-methylbenzyl)-3-(tetrahydro-2H-pyran-4-yl)-[1,2,4]triazolo[4,3-a]pyrazin-8(7H)-one]
236 nM	46 nM	190 nM	–	–	CCCc1nnc2c(=O)n(Cc3cccc(F)c3)c(C)cn12 [7-(3-fluorobenzyl)-6-methyl-3-propyl-[1,2,4]triazolo[4,3-a]pyrazin-8(7H)-one]
1000 nM	2400 nM	800 nM	–	–	CCc1nnc2c(=O)n(Cc3ccc(Cl)cc3)ccn12 [7-(4-Chlorobenzyl)-3-ethyl-[1,2,4]triazolo[4,3-a]pyrazin-8(7H)-one]
